The source of these data is patent US20050124618A1, “Methods of modulating angiogenesis and cancer cell proliferation” (priority 2003, published 2005).

Each structure is given as a SMILES string. “Also recorded” adds a separate entry of the source.

For one data set, the system named is 9L rat gliosarcoma cells. Briefly: 9L cell proliferation assay (cell counting). It is filed as cell-based. The protocol: Culture Conditions: 9L rat gliosarcoma cells were purchased from ATC (Gaithersburg, Md.) and were maintained in DMEM (Invitrogen) supplemented with 10% heat-inactivated fetal bovine serum (FBS), penicillin (10 IU/ml), streptomycin (10 μg/ml) and 10% non-essential amino acids (all purchased from Invitrogen). Cells were maintained at 37° C. in a humidified incubator containing 5% CO2. They were grown in medium containing 10% FBS, which was then replaced with serum-free medium (give type and source) where 9L cells grow exponentially.
Cell Proliferation Assays: Proliferation studies were performed with cultures plated at a density that ensured exponential growth for at least 5 days. Growth medium were generally replaced by serum free medium 24 hr after plating. […] The concentration of the ethanol added to the media never exceeded 0.1%. Cells were harvested by exposure to a solution of 0.05% Trypsin/EDTA and counted using a hemocytometer.

The next data set concerns p42/p44 MAPK. Nature of the data set: Western blot of phospho-p42/p44 MAPK in 9L cells. The format is cell-based, rat. Particulars: 10 μM HET0016; 4 hr, 24 hr. As to the method:
They were then pelleted by centrifugation at 1,000 g for 5 min at 4° C. The cells were lysed by adding RIPA buffer [20 mM HEPES (pH 7.4), 100 mM NaCl, 1% Nonidet P-40, 0.1% SDS, 1% deoxycholic acid, 10% glycerol, 1 mM EDTA, 1 mM NaVO3, 50 mM NaF, and protease inhibitors Set 1 (Calbiochem, La Jolla, Calif.)]. The plates were then scraped and the cells were collected in a 1.5-ml centrifuge tube, followed by incubation on ice for 30 min. The cell homogenates were centrifuged for 10 min at 14,000 g and 4° C.; the pellets were discarded and the protein concentrations in the supernatant determined by bicinchoninic acid (BCA) protein assay.
Typically, 20 μg of protein obtained from the cell homogenates was separated on a 14% Tris-glycine gel (Invitrogen) and transferred to a PVDF membrane (Biotrace, Bothell, Wash.). The membranes were blocked for 1 hr at room temperature with blocking buffer [0.2% I-Block reagent (Tropix, Bedford, Mass.), 0.1% Tween-20 in 1×PBS] and then incubated with the primary antibodies in blocking buffer overnight at 4° C. Phospho-p42/p44 MAPK (T202/Y204)(20G11), and phospho-SAPK/JNK (T183/Y185) (98F2) monoclonal antibodies were purchased from Upstate (Waltham, Mass.). […] Both phospho-p44/p42MAPK and phospho-SAPK/JNK were detected using 1:1000 antibody dilutions. […]

In the next data set the test system is 20-HETE. Nature of the data set: 20-HETE formation in electrically stimulated skeletal (TA) muscle of rats. It is filed as in vivo, rat. As to the method:
Experimental protocols and tissue preparation: After a 24-h recovery period, the implanted stimulator was activated by momentary closure of the magnetic reed switch using a small hand-held magnet. […] Contractions of the extensor digitorum longus (EDL) and tibialis anterior (TA) muscles were automatically initiated at 9 AM each day and sustained for 8 h/day over a consecutive 7-day period. At the end of the stimulation period, the animals were euthanized by an overdose of pentobarbital sodium (100 mg/kg ip), and the EDL and TA muscles were harvested for analysis as previously described (Greene A S et al., Hypertension 15: 779-783, 1990; and Parmentier J H et al., Hypertension 37: 623-629, 2001).
The rats were divided in four groups. […] This dose was chosen based on our previous results (Kehl F et al., Am J Physiol Heart Circ Physiol 282: H1556-H1565, 2002).
To determine the contribution of VEGF to the angiogenesis induced by electrical stimulation, six rats in group 3 were treated with 3 mg/kg ip injections of a monoclonal VEGF-neutralizing antibody (Texas Biotechnology; Houston, Tex.) during the period of electrical stimulation. The protocol for administration of VEGF-neutralizing antibody was modified from Zheng W et al. (Circ Res 85: 192-198, 1999), and this dose was based on our previous results (Amaral S L et al., Microcirculation 8: 57-67, 2001). After the stimulation period was started, the rats received intraperitoneal injections on days 3, 5, and 7 (0.6 mg/100 g).
Muscle preparations for measurement of 20-HETE: The 100-200 mg of frozen TA muscle were homogenized in a solution containing 1 ml of acidified water and 50 μl of an internal standard, WIT-002, which was synthesized and kindly provided by Taisho Pharmaceutical. Ethyl acetate (3 ml, Fisher Scientific; Pittsburgh, Pa.) was added to the mixture and gently vortexed. The homogenized tissues were then centrifuged at 3,000 revolutions/min for 2 min. With the use of a glass Pasteur pipet, the top layer was removed and transferred to a sterile glass vial, and the samples were dried under nitrogen and stored at −80° C.
Labeling of samples and fluorescent detection of 20-HETE: Detection of 20-HETE was performed as previously described (Ma Y H et al., Am J Physiol Regul Integr Comp Physiol 267: R579-R589, 1994). Samples, which were extracted and dried under argon, were resuspended in 20 μl of acetonitrile containing 36.4 mM 2-(2,3-napthalimino)ethyl trifluoromethanesulfonate, and N,N-diisopropylethylamine (10 μl) was added as a catalyst. The sample was reacted for 30 min at room temperature, dried under argon, resuspended in 1 ml of 40% acetonitrile-water, and applied to a Sep-Pak Vac column. The column was washed with 6 ml of 50% acetonitrile-water solution to remove unreacted dye, eluted with 500 μl of ethyl acetate, dried under argon, and resuspended in 100 μl of the HPLC mobile phase [methanol-water-acetic acid, 82:18:0.1 (vol/vol)]. A 25-μl aliquot of the derivatized sample was separated on a 4.6×250-mm Symmetry C18 reverse-phase HPLC column (Waters) isocratically at a rate of 1.3 ml/min using methanol-water-acetic acid (82:18:0.1 (vol/vol)) as the mobile phase. Fluorescence intensity monitored using an in-line fluorescence detector (model number L-7480, Hitachi; Naperville, Ill.) at medium gain sensitivity. The amount of 20-HETE in the sample was determined by comparing the area of the 20-HETE peak with that of the internal standard (WIT-002).

For the molecule `CCCCc1ccc(N=CNO)c(C)c1` [HET0016, N-hydroxy-N′-(4-butyl-2 methylphenyl) formamidine], the “reduction of proliferation of 9L cells” value in the data set with 9L rat gliosarcoma cells (10 μM HET0016, 48 hrs) turned out to be 60%. The “effect on EGF-stimulated growth of 9L cells at 24 hr” value with 9L rat gliosarcoma cells (EGF 200 ng/ml + 10 μM HET0016, 24 hr) is reported as “prevented the effects of EGF on cells growth”. Besides, the “effect on EGF-stimulated growth of 9L cells at 48 hr” value in the data set on 9L rat gliosarcoma cells (EGF 200 ng/ml + 10 μM HET0016, 48 hr) is reported as “reduced the number of cells”. For the same molecule, in the data set on 9L rat gliosarcoma cells (EGF 200 ng/ml + HET0016), the “effect on EGF-induced growth of 9L cells” value is “almost abolished”. For the same molecule, the “inhibition of 9L cell growth” value in the data set with 9L rat gliosarcoma cells (HET0016 10 nM) is listed as “some degree of inhibition of cell growth was apparent even though the difference from control was not significant”. In addition, in the data set with 9L rat gliosarcoma cells (HET0016 100 μM), the “cytotoxicity to 9L cells (cell detachment, dead cells)” value is reported as “may have a direct cytotoxic effect” and the “effect on 9L cell number” value is “dramatic reduction in cell number”. In addition, in the data set with 9L rat gliosarcoma cells (HET0016 1 and 10 μM, both 24 and 48 hr), the “reduction of 9L cell number” value is recorded as 30-40%. The “dose dependence of inhibition of 9L growth” value with 9L rat gliosarcoma cells (various concentrations of HET0016) is “decreased the proliferation of 9L cells in a dose-related manner; also recorded: produced a dose dependent inhibition”. In the data set on p42/p44 MAPK, the “phosphorylation of p42/p44 MAPK” value is listed as “decreases the phosphorylation; also recorded: significantly reduced the phosphorylation; also recorded: even greater after 24 hr”. Further, the “effect on the increase of 20-HETE formation induced by electrical stimulation” value in the data set on 20-HETE (7 days of electrical stimulation, chronic treatment) was “completely blocked”. Further, the “20-HETE formation in skeletal muscle, unstimulated side” value in the data set with 20-HETE (rats treated 7 days, TA muscle) turned out to be 110.26±28.36 ng/g muscle. In the data set on 20-HETE (rats treated 7 days, TA muscle, 7 days electrical stimulation), the “20-HETE formation in skeletal muscle, stimulated side” value stood at 102.1±22.3 ng/g muscle. Moreover, the “effect on basal formation of 20-HETE in skeletal muscle” value in the data set on 20-HETE (treatment for 7 days) is reported as “did not change the basal formation”.
